# From patent publication US20140357512A1, “HISTONE DEACETYLASE (HDAC) BIOMARKERS IN MULTIPLE MYELOMA” (priority 2013, published 2014)
# System: human myeloma cell line MM.1S
# Assay: SILAC acetylated-lysine peptide profiling, HDAC inhibitor vs DMSO (light/heavy ratio)
# Format: cell-based
# From the text: An embodiment of the invention comprises utilizing the SILAC method in order to quantitate changes in protein expression between two or more populations of cells. The SILAC method is a technique based on mass spectrometry that detects differences in protein abundance among samples using non-radioactive isotopic labeling. The SILAC method is known in the art, and described in detail in Ong et al., “Stable Isotope Labeling by Amino Acids in Cell Culture, SILAC, as a Simple and Accurate Approach to Expression Proteomics”, Molecular & Cellular Proteomics, vol. 1, pp. 376-386 (2002), which is incorporated herein by reference in its entirety.
# Briefly, the SILAC method involves growing two populations of cells in cell culture. The first population of cells is grown in growth media containing normal amino acids (“normal media”). The second population of cells is grown in media lacking a standard essential amino acid (such as lysine), but is then supplemented with a non-radioactive, isotopically labeled form of that essential amino acid (such as lysine labeled with ^13C atoms, rather than normal ^12C atoms), which is called “heavy media”. When the two populations of cells are each growing in the medium, they incorporate the amino acids into all of their proteins. The growth of cells maintained in the heavy media is no different from that in normal media. All peptides containing the heavy amino acids are heavier than their normal counterparts. The cells from each of the two populations of cells are lysed. The lysates from each of the two cell populations are then combined. The combined cell lysates are then analyzed by mass spectrometry. Pairs of chemically identical peptides of different stable isotope composition can be differentiated in a mass spectrometer due to their difference in mass. The ratio of peak intensities in the mass spectrum for such peptide pairs reflects the abundance ratio for the two proteins.
# This example describes SILAC studies that were performed to compare the effects of three different HDAC inhibitors (Compound A, Compound B, and tubastatin A) to a control on a human multiple myeloma cell line. The HDAC inhibitors were also compared amongst themselves to determine differences in their effects.
# A human myeloma cell line MM.1S was grown using either ^12C (light) or ^13C (heavy) lysine containing culture medium. The “heavy” cells were treated with DMSO as the control, and the “light” cells were treated with a single HDAC inhibitor at 37° C. for 6 hours. The heavy and light cells were lysed, and the lysates were mixed in 1:1 ratio and digested with the protease trypsin. The acetylated lysine containing peptides (due to the action of the HDAC inhibitor) in the digested peptide pool were captured by a non-specific anti-acetylated lysine antibody cocktail (the antibodies identify both light and heavy acetylated peptides), and subjected to mass spectrometry analysis in order to identify thousands of individual peptides.
# Thousands of peptides were identified in pairs (^12C and ^13C) due to their known mass differences. The amino acid sequence and quantitative ratio (Light/Heavy) of a given peptide in two differentially treated cell lysates were then determined and annotated with their possible protein (gene) sources.
# As stated above, three HDAC inhibitors (Compound A, Compound B, and Tubastatin A) were used. Thus, the SILAC method was performed three times, with a different HDAC inhibitor compared to a control each time. Accordingly, there are three pairs of quantitative data in the table below, i.e., Compound A:DMSO, Compound B:DMSO, and Tubastatin A:DMSO. A cut-off of 1.30 fold of change (increase or decrease) was then used to determine “changed” or “+” in the table, and any peptides with a fold of change less than 1.3 fold were determined to be “unchanged” or “0” in the table. Those peptides that were not identified were marked as “NA” in the table. […]
smiles,measurement,setting,value
"O=C(CCCCCCNC(=O)c1cnc(N(c2ccccc2)c2ccccc2)nc1)NO [Compound A, 2-(diphenylamino)-N-(7-(hydroxyamino)-7-oxoheptyl)pyrimidine-5-carboxamide]","light to heavy ratio (L/H ratio), log 2 scale, acetylated peptide VGDK(ac)[…] (SEQ ID NO: 773)","10 kDa heat shock protein mitochondrial [70], gene HSPE1, drug:DMSO",1.00
same,light to heavy ratio (L/H ratio) of acetylated peptide AGEATVK(ac)FLK (SEQ ID NO: 580),"39S ribosomal protein L9 mitochondrial [165], gene MRPL9, inhibitor:DMSO",0.43 log 2
same,light to heavy ratio (L/H ratio) of acetylated peptide IQEVLK(ac)HAR (SEQ ID NO: 264),"39S ribosomal protein L20 mitochondrial [26], MRPL20, drug:DMSO",0.43 log 2
same,light to heavy ratio (L/H ratio) of acetylated peptide YIGK(ac)TMDYR (SEQ ID NO: 535),"39S ribosomal protein L24 mitochondrial [100], gene MRPL24, inhibitor:DMSO",−0.39 log 2
same,light to heavy ratio (L/H ratio) of acetylated peptide FQK(ac)ELER (SEQ ID NO: 618),"39S ribosomal protein L44 mitochondrial [43], gene MRPL44, inhibitor:DMSO",0.48 log 2
same,light to heavy ratio (L/H ratio) of acetylated peptide FK(ac)LITEDVQGK (SEQ ID NO: 287),"40S ribosomal protein S3a [85], SNORD73A, RPS3A, drug:DMSO",0.62 log 2
same,light to heavy ratio (L/H ratio) of acetylated peptide KDVHMPK(ac)HPELADK (SEQ ID NO: 353),"40S ribosomal protein S10 [31], RPS10, drug:DMSO",0.00 log 2
same,"light to heavy ratio (L/H ratio), log 2 scale, acetylated peptide K(ac)FGGPGAR (SEQ ID NO: 768)","40S ribosomal protein S16 [131], gene RPS16, drug:DMSO",0.97
same,light to heavy ratio (L/H ratio) of acetylated peptide NK(ac)[…] (SEQ ID NO: 559),"40S ribosomal protein S17 [49], gene RPS17, RPS17L, inhibitor:DMSO",0.40 log 2
same,light to heavy ratio (L/H ratio) of acetylated peptide ADGIVSK(ac)NF (SEQ ID NO: 599),"40S ribosomal protein S21 [81], gene RPS21, inhibitor:DMSO",0.46 log 2
same,light to heavy ratio (L/H ratio) of acetylated peptide GIVLEK(ac)VGVEAK (SEQ ID NO: 320),"40S ribosomal protein S23 [54], RPS23, drug:DMSO",1.00 log 2
same,"light to heavy ratio (L/H ratio), log 2 scale, acetylated peptide K(ac)FGQGSR (SEQ ID NO: 809)","40S ribosomal protein S29 [13], gene RPS29, drug:DMSO",1.00
same,"light to heavy ratio (L/H ratio), log 2 scale, acetylated peptide ATWK(ac)SNYFLK (SEQ ID NO: 760)","60S acidic ribosomal protein P0 [10], gene RPLP0, drug:DMSO",0.91
same,"light to heavy ratio (L/H ratio), log 2 scale, acetylated peptide ALEK(ac)IDLK (SEQ ID NO: 813)","60S ribosomal protein L3 [362], gene SNORD43, RPL3, drug:DMSO",1.00
same,light to heavy ratio (L/H ratio) of acetylated peptide IPK(ac)HLTDAYFK (SEQ ID NO: 259),"60S ribosomal protein L6 [211], RPL6, drug:DMSO",0.40 log 2
same,"light to heavy ratio (L/H ratio), log 2 scale, acetylated peptide AVDSQILPK(ac)IK (SEQ ID NO: 761)","60S ribosomal protein L6 [261], gene RPL6, drug:DMSO",0.92
same,light to heavy ratio (L/H ratio) of acetylated peptide HGYIK(ac)GIVK (SEQ ID NO: 556),"60S ribosomal protein L8 [42], gene RPL8, inhibitor:DMSO",0.40 log 2
same,light to heavy ratio (L/H ratio) of acetylated peptide IDK(ac)PILK (SEQ ID NO: 506),"60S ribosomal protein L8 [177], gene RPL8, inhibitor:DMSO",−0.65 log 2
same,light to heavy ratio (L/H ratio) of acetylated peptide GPLDK(ac)WR (SEQ ID NO: 622),"60S ribosomal protein L10-like [208], gene RPL10L, inhibitor:DMSO",0.48 log 2
same,"light to heavy ratio (L/H ratio), log 2 scale, acetylated peptide YMVK(ac)SCGK (SEQ ID NO: 811)","60S ribosomal protein L10 [78], gene SNORA70, RPL10, drug:DMSO",1.00
same,"light to heavy ratio (L/H ratio), log 2 scale, acetylated peptide VDEVK(ac)STIK (SEQ ID NO: 805)","60S ribosomal protein L10a [152], gene RPL10A, drug:DMSO",1.00
same,light to heavy ratio (L/H ratio) of acetylated peptide VITEEEK(ac)NFK (SEQ ID NO: 522),"60S ribosomal protein L13 [174], gene RPL13, inhibitor:DMSO",−0.46 log 2
same,light to heavy ratio (L/H ratio) of acetylated peptide LAAIVAK(ac)QVLLGR (SEQ ID NO: 505),"60S ribosomal protein L13a [25], gene SNORD32A, RPL13A, SNORD33, SNORD34, inhibitor:DMSO",−0.67 log 2
same,light to heavy ratio (L/H ratio) of acetylated peptide K(ac)FAYLGR (SEQ ID NO: 614),"60S ribosomal protein L13a [134], gene SNORD32A, RPL13A, SNORD33, SNORD34, inhibitor:DMSO",0.47 log 2
same,"light to heavy ratio (L/H ratio), log 2 scale, acetylated peptide LAHEVGWK(ac)[…] (SEQ ID NO: 812)","60S ribosomal protein L13a [148], gene SNORD32A, RPL13A, SNORD33, SNORD34, drug:DMSO",1.00
same,light to heavy ratio (L/H ratio) of acetylated peptide […](ac)PVHK (SEQ ID NO: 581),"60S ribosomal protein L15 [153], gene RPL15, inhibitor:DMSO",0.43 log 2
same,light to heavy ratio (L/H ratio) of acetylated peptide GHK(ac)FHHTIGGSR (SEQ ID NO: 519),"60S ribosomal protein L15 [179], gene RPL15, inhibitor:DMSO",−0.51 log 2
same,"light to heavy ratio (L/H ratio), log 2 scale, acetylated peptide SFVK(ac)[…] (SEQ ID NO: 770)","60S ribosomal protein L27 [73], gene RPL27, drug:DMSO",0.99
same,"light to heavy ratio (L/H ratio), log 2 scale, acetylated peptide YSVDIPLDK(ac)TVVNK (SEQ ID NO: 807)","60S ribosomal protein L27 [93], gene RPL27, drug:DMSO",1.00
same,"light to heavy ratio (L/H ratio), log 2 scale, acetylated peptide TVVNK(ac)DVFR (SEQ ID NO: 766)","60S ribosomal protein L27 [98], gene RPL27, drug:DMSO",0.94
same,light to heavy ratio (L/H ratio) of acetylated peptide NCSSFLIK(ac)R (SEQ ID NO: 558),"60S ribosomal protein L28 [19], gene RPL28, inhibitor:DMSO",0.40 log 2
same,light to heavy ratio (L/H ratio) of acetylated peptide IHGVGFK(ac)K (SEQ ID NO: 542),"60S ribosomal protein L31 [39], gene RPL31, inhibitor:DMSO",0.39 log 2
same,"light to heavy ratio (L/H ratio), log 2 scale, acetylated peptide LNK(ac)AVWAK (SEQ ID NO: 808)","60S ribosomal protein L31 [70], gene RPL31, drug:DMSO",1.00
same,light to heavy ratio (L/H ratio) of acetylated peptide […](ac)ENLR (SEQ ID NO: 610),"60S ribosomal protein L35 [66], gene RPL35, inhibitor:DMSO",0.47 log 2
same,light to heavy ratio (L/H ratio) of acetylated peptide LWSK(ac)AIFAGYK (SEQ ID NO: 538),"60S ribosomal protein L35a [8], gene RPL35A, inhibitor:DMSO",0.38 log 2
